{"source": "paper PMC3411462", "about": "“Long-acting κ opioid antagonists nor-BNI, GNTI and JDTic: pharmacokinetics in mice and lipophilicity” (BMC Pharmacology, 2012)", "key": {"[1]": {"test_system": "mice", "test": "Fatalities and behavioral effects after i.p. administration", "settings": "100 mg kg^-1", "experimental": "Experiments were performed between 10 am and 6 pm. Mice were not used in other experiments, or exposed to other drugs, before testing began.\nDoses are reported by weight of the specified salt. Intraperitoneal injections were administered in distilled water vehicle (10 mL kg^-1). Body mass was measured to ±0.1 g. Some values were inadvertently measured on a low-precision balance (± 2.5 g); these timepoints were replicated at ±0.1 g."}, "[2]": {"test": "Octanol-buffer distribution (log D7.4)", "format": "physicochemical", "settings": "1-octanol/PBS", "procedure": "Phosphate-buffered saline (PBS, pH 7.4) and 1-octanol were mutually saturated by vigorous stirring at room temperature for 18 h, and then separated. Drug solutions of 0.1 mg mL^-1 in PBS were prepared, and 500 μL aliquots were added to 1.5 mL micro-centrifuge tubes with an equal volume of 1-octanol. Three samples were vortex-mixed for 1, 10 and 30 minutes respectively, then centrifuged at room temperature (12,000 rpm for 15 minutes). Aliquots of the upper octanol layer were removed by pipette. A disposable syringe was inserted while bubbling air through the upper layer, an aliquot of the lower PBS layer withdrawn, and the needle removed before transferring. Samples were stored in glass sample vials at −20 °C until analysis by LC-MS-MS.\n(§1) Drug concentrations (ng mL^-1) refer to the free base, and were measured by liquid chromatography-tandem mass spectrometry (LC-MS-MS) as described previously. Briefly, samples were shaken with 3 volumes of methanol and centrifuged at 3000 g. Aliquots of the supernatants were diluted with 5 volumes of water containing an appropriate internal standard. Extracts from in vitro and in vivo experiments were analyzed by multiple reaction monitoring on an API3000 or API4000 LC-MS-MS system with electrospray ion source, controlled and analyzed using the Analyst software package (Applied Biosystems, Foster City, CA). Chromatography was conducted on a Sprite Armor C18 analytical column (20 × 2.1 mm, 10 μm particle size, Analytical Sales and Products, Pompton Plains, NJ) with a 0.5 μm PEEK guard filter. Compounds were eluted with a gradient from 2% to 95% acetonitrile in water, both containing 0.1% formic acid. Compounds were detected in positive ion mode, tuned to the mass transition with the largest intensity. Analyte concentrations were determined by comparison of analyte:internal standard peak area ratios to those of standards prepared in the appropriate matrices."}, "[3]": {"test": "Water solubility", "format": "physicochemical", "settings": "distilled water, thermodynamic from solid, 25 °C, salt tested", "procedure": "Distilled water was added slowly by microsyringe to 10–15 mg of drug in a glass vial, swirling until no solid was visible."}, "[4]": {"test": "Plasma binding (unbound fraction by ultracentrifugation)", "format": "in vitro ADME", "settings": "5 μM drug, mean, n = 3", "procedure": "Unbound fractions in brain homogenate and plasma were determined by ultracentrifugation as described previously. Briefly, drug-spiked matrices (5 μM drug in plasma or brain homogenate) were centrifuged at 600,000 g for 5 h at 37 °C (plasma) or 5 °C (brain). Aliquots of the middle (water) layer were added to an equal volume of blank matrix and extracted with 5 volumes of acetonitrile containing internal standard. Aliquots of the original spiked matrix were mixed with an equal volume of blank matrix and 2 volumes of plasma ultrafiltrate (plasma) or phosphate-buffered saline (tissue) and extracted with 10 volumes of acetonitrile. Extracts were centrifuged and analyzed by LC-MS-MS. Fraction unbound was calculated from the ratio of concentration in the water layer to that in the original spiked matrix, corrected for dilution as described previously."}, "[5]": {"test": "Brain and plasma concentrations in mice after intraperitoneal administration (LC-MS-MS), non-compartmental analysis", "format": "in vivo", "settings": "for [drug],brain (free base equivalent) / [drug],plasma (free base equivalent): listed as nor-BNI.2HCl.H2O", "procedure": "Doses are reported by weight of the specified salt. […] Body mass was measured to ±0.1 g.\nMice were sacrificed by cervical dislocation, then decapitated for collection of brain and blood samples. Trunk blood was collected in 1.5 mL polypropylene micro-centrifuge tubes, shaken with a few crystals of EDTA and cooled in ice-water. Samples were centrifuged at 14,000 rpm (revolutions per minute) for 15 minutes at 3 °C, then stored in glass sample vials at −20 °C until analysis. Brains were removed and immersed for 30 seconds in 2-methylbutane over dry ice, then stored in polypropylene tubes at −20 °C until sample preparation. Sample tubes were thawed in ice-water, distilled water was added (2:1 by weight) and the brain homogenized with a probe sonicator for 3 minutes over ice-water (Fisher Sonic Dismembrator 300 at 35% power). The probe was rinsed with ethanol and distilled water between samples. Brain homogenate was stored in glass sample vials at −20 °C until analysis by LC-MS-MS.\nas §1\nFor calculation of mean concentrations, the earliest values below the MRC were substituted by MRC ÷ 2, as recommended elswhere. Pharmacokinetic parameters were calculated from mean concentrations using PKSolver, employing non-compartmental analysis for extravascular administration. Curves in figures were fitted using Origin 8.5 (OriginLab, Northampton, MA) using 2-compartment models. Confidence intervals and two-tailed p values (unpaired t test) were calculated using Graphpad Quickcalcs. One outlier was identified using Grubbs' test (p < 0.01) and excluded from the analysis; see Additional file 1."}, "[6]": {"settings": "0.5 h, 10 mg/kg i.p., individual mice, 10 mg/kg"}, "[7]": {"settings": "1 h, 10 mg/kg i.p., individual mice, 10 mg/kg"}, "[8]": {"settings": "2 h, 10 mg/kg i.p., individual mice, 10 mg/kg"}}, "note": "“And” between values parts separate entries of the source, which are not always exact repeats. Identical values can stand only once. Like-named read-outs stand apart in the source and are kept apart here.", "data": [{"compound": "Oc1ccc2c3c1O[C@H]1c4[nH]c5c(c4C[C@@]4(O)[C@@H](C2)N(CC2CC2)CC[C@]314)C[C@@]1(O)[C@H]2Cc3ccc(O)c4c3[C@@]1(CCN2CC1CC1)[C@H]5O4", "note": "[nor-BNI, norbinaltorphimine]", "values": [{"measurement": "Behavioral effects observed", "setting": "[1]", "result": "Only mild behavioral effects, such as hiccup-like spasms and shivering"}, {"measurement": "Fatalities", "setting": "[1]", "result": "no fatalities"}, {"measurement": "logD", "setting": "[2]; pH 7.4, pooled mixing times 1, 10, 30 min", "result": 1.53}, {"measurement": "logD at 1 min", "setting": "[2]; mixing time 1 min, octanol/PBS pH 7.4", "result": 1.43}, {"measurement": "logD at 10 min", "setting": "[2]; mixing time 10 min, octanol/PBS pH 7.4", "result": 1.59}, {"measurement": "logD at 30 min", "setting": "[2]; mixing time 30 min, octanol/PBS pH 7.4", "result": 1.57}, {"measurement": "solubility", "setting": "[3]", "result": "> 45", "unit": "mM"}, {"measurement": "fraction unbound at 5 h, 5 μM", "setting": "[4]", "result": 0.51}, {"measurement": "Time of maximal mean plasma level", "setting": "[5]; 10 mg kg^-1 i.p., mice", "result": 30, "unit": "min"}, {"measurement": "[drug],brain (free base equivalent)", "setting": "[5]; [6]", "result": "477 ng/g and 471 ng/g and 309 ng/g and 609 ng/g and 438 ng/g"}, {"measurement": "[drug],plasma (free base equivalent)", "setting": "[5]; [6]", "result": "6130 ng/mL and 4810 ng/mL and 2110 ng/mL and 3050 ng/mL"}, {"measurement": "[drug],brain (free base equivalent)", "setting": "[5]; [7]", "result": "250 ng/g and 396 ng/g and 299 ng/g and 372 ng/g and 207 ng/g"}, {"measurement": "[drug],plasma (free base equivalent)", "setting": "[5]; [7]", "result": "3060 ng/mL and 2060 ng/mL and 1510 ng/mL and 1140 ng/mL and 1170 ng/mL"}, {"measurement": "[drug],brain (free base equivalent)", "setting": "[5]; [8]", "result": "<120", "unit": "ng/g"}, {"measurement": "[drug],plasma (free base equivalent)", "setting": "[5]; [8]", "result": "343 ng/mL and 309 ng/mL"}, {"measurement": "[drug],plasma (free base equivalent)", "setting": "[5]; 4 h, 10 mg/kg i.p., individual mice, 10 mg/kg", "result": "173 ng/mL and 156 ng/mL"}, {"measurement": "[drug],plasma (free base equivalent)", "setting": "[5]; 24 h, 10 mg/kg i.p., individual mice, 10 mg/kg", "result": "63 ng/mL and 50 ng/mL and 14 ng/mL"}, {"measurement": "Peak unbound brain level", "setting": "[5]; at 30 minutes, 10 mg kg^-1 i.p., estimate", "result": "≤ 26", "unit": "nM"}, {"measurement": "AUMC 0-inf_obs", "setting": "[5]; brain NCA, 10 mg/kg i.p.", "result": 712.925, "unit": "ng/ml*h^2"}, {"measurement": "Tlag", "setting": "[5]; brain NCA, 10 mg/kg i.p.", "result": 0, "unit": "h"}, {"measurement": "C max,brain", "setting": "[5]; brain, 10 mg kg^-1 i.p., mice", "result": 443, "unit": "ng/mL"}, {"measurement": "AUC(0-inf)", "setting": "[5]; male, Swiss-Webster (Crl:CFW(SW)), mouse, brain, ip, 10 mg/kg, brain NCA, 10 mg/kg i.p., read-out: AUC 0-inf_obs", "result": 593, "unit": "ng·h/mL"}, {"measurement": "Kp uu", "setting": "[5]; male, Swiss-Webster (Crl:CFW(SW)), mouse, brain/plasma (unbound), ip, supplement, 10 mg/kg i.p., read-out: Kp,uu,brain (AUC0–∞,brain,u / AUC0–∞,p,u)", "result": "< 0.00725"}, {"measurement": "Kp", "setting": "[5]; male, Swiss-Webster (Crl:CFW(SW)), mouse, brain/plasma, ip, supplement, 10 mg/kg i.p., read-out: Kp,brain (AUC0–∞,brain / AUC0–∞,p)", "result": 0.0924}, {"measurement": "MRT inf", "setting": "[5]; male, Swiss-Webster (Crl:CFW(SW)), mouse, ip, brain NCA, 10 mg/kg i.p., read-out: MRT 0-inf_obs", "result": 1.2, "unit": "h"}, {"measurement": "Kp uu", "setting": "[5]; male, Swiss-Webster, mouse, brain and plasma (unbound), ip, 10 mg kg^-1 i.p., mice, read-out: Cmax,brain,u/Cmax,p,u", "result": "< 0.009"}, {"measurement": "Kp uu", "setting": "[5]; male, Swiss-Webster, mouse, brain and plasma (unbound), ip, 10 mg kg^-1 i.p., mice, read-out: K p,uu,brain (AUC0–∞,brain,u/AUC0–∞,p,u)", "result": "< 0.007"}, {"measurement": "Kp", "setting": "[5]; male, Swiss-Webster, mouse, brain and plasma, ip, 10 mg kg^-1 i.p., mice, read-out: Cmax,brain/Cmax,p", "result": 0.11}, {"measurement": "Kp", "setting": "[5]; male, Swiss-Webster, mouse, brain and plasma, ip, 10 mg kg^-1 i.p., mice, read-out: K p,brain (AUC0–∞,brain/AUC0–∞,p)", "result": 0.09}, {"measurement": "concentration at 0.5 h", "setting": "[5]; male, Swiss-Webster, mouse, brain, intraperitoneal, 10 mg/kg, 0.5 h, 10 mg/kg, read-out: Conc (brain, NCA input)", "result": 443, "unit": "ng/mL"}, {"measurement": "concentration at 1 h", "setting": "[5]; male, Swiss-Webster, mouse, brain, intraperitoneal, 10 mg/kg, 1 h, 10 mg/kg, read-out: Conc (brain, NCA input)", "result": 308, "unit": "ng/mL"}, {"measurement": "concentration at 2 h", "setting": "[5]; male, Swiss-Webster, mouse, brain, intraperitoneal, 10 mg/kg, 2 h, 10 mg/kg, read-out: Conc (brain, NCA input)", "result": 96.3, "unit": "ng/mL"}, {"measurement": "concentration at 0.5 h", "setting": "[5]; male, Swiss-Webster, mouse, brain, ip, 10 mg/kg, 0.5 h, 10 mg/kg i.p., individual mice, read-out: [drug],brain (free base equivalent)", "result": 354, "unit": "ng/g"}, {"measurement": "concentration at 0.5 h", "setting": "[5]; male, Swiss-Webster, mouse, brain, ip, 10 mg/kg, 0.5 h, 10 mg/kg i.p., read-out: mean (brain)", "result": 443, "unit": "ng/g"}, {"measurement": "concentration at 1 h", "setting": "[5]; male, Swiss-Webster, mouse, brain, ip, 10 mg/kg, 1 h, 10 mg/kg i.p., individual mice, read-out: [drug],brain (free base equivalent)", "result": 324, "unit": "ng/g"}, {"measurement": "concentration at 1 h", "setting": "[5]; male, Swiss-Webster, mouse, brain, ip, 10 mg/kg, 1 h, 10 mg/kg i.p., read-out: mean (brain)", "result": 308, "unit": "ng/g"}, {"measurement": "concentration at 2 h", "setting": "[5]; male, Swiss-Webster, mouse, brain, ip, 10 mg/kg, 2 h, 10 mg/kg i.p., individual mice, read-out: [drug],brain (free base equivalent)", "result": 169, "unit": "ng/g"}, {"measurement": "concentration at 2 h", "setting": "[5]; male, Swiss-Webster, mouse, brain, ip, 10 mg/kg, 2 h, 10 mg/kg i.p., <MRC substituted by MRC/2, read-out: mean (brain)", "result": 96, "unit": "ng/g"}]}]}
